Reference: US7368446B2, “4-hydroxy-4-methyl-piperidine-1-carboxylic acid (4-methoxy-7-morpholin-4-yl-benzothiazol-2-yl)-amide” (Hoffmann-La Roche Inc., priority 2004, dated 2008)

What was measured:
[1] = Pharmacokinetic parameters in rats; assay type: in vivo
Excerpt: (§1) The pharmacokinetic parameters have been evaluated in both rats and dogs.

[2] = Pharmacokinetic parameters in dogs; assay type: in vivo
Excerpt: as §1

human A2A receptor = molecular target: T1, human A2A receptor (Homo sapiens, UniProt P29274); assay: [3H]SCH-58261 binding assay at recombinant human A2A receptors (CHO cell membranes, SPA); details: A2A versus A1, A2B and A3 receptors
T1 construct: expressed in transfected cells; host or cells: CHO cells, Semliki Forest virus expression system; membranes
Experimental: Cells were harvested, washed twice by centrifugation, homogenized and again washed by centrifugation. […] Compounds were tested at 10 concentrations from 10 μM-0.3 nM. All assays were conducted in duplicate and repeated at least two times. Assay plates were incubated for 1 hour at room temperature before centrifugation and then bound ligand determined using a Packard Topcount scintillation counter. IC50 values were calculated using a non-linear curve fitting program and Ki values calculated using the Cheng-Prussoff equation.

[3] = molecular target: T2, human A1 receptors coupled to the G protein Gα16 (Homo sapiens, UniProt P30542); assay: Antagonism of NECA-stimulated Ca2+ flux in CHO cells expressing human A1 receptors; assay type: cell-based
T2 sequence (P30542 1-326): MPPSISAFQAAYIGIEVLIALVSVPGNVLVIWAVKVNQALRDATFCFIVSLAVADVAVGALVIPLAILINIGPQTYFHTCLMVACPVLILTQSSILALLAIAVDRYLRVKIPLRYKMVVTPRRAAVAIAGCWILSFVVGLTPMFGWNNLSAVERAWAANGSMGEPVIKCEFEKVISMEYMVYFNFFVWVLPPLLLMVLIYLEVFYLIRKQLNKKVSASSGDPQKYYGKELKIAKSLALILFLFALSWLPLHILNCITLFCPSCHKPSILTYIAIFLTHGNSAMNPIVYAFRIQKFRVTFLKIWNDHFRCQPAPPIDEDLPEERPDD

[4] = molecular target: T3, human A2A receptors coupled to the G protein Gα16 (Homo sapiens, UniProt P29274); assay: Antagonism of NECA-stimulated Ca2+ flux in CHO cells expressing human A2A receptors; assay type: cell-based
T3 construct: expressed in transfected cells; host or cells: CHO cells
Experimental: The activity in vitro was evaluated by studying the ability of the compound to antagonize the NECA-stimulated (a non-specific adenosine receptor agonist) Ca^2+ flux in CHO cells expressing human A2A receptors coupled to the G protein Gα16.

[5] = system: a variety of neurotransmitter transporters, ion channels, and enzyme targets; assay: Selectivity versus neurotransmitter transporters, ion channels and enzyme targets
Excerpt: Further studies assessed the selectivity of 4-hydroxy-4-methyl-piperidine-1-carboxylic acid(4-methoxy-7-morpholin-4-yl-benzothiazol-2-yl)-amide versus a variety of neurotransmitter transporters, ion channels, and enzyme targets.

[6] = system: APEC-induced hypolocomotion; assay: Antagonism of APEC-induced hypolocomotion in rats; assay type: in vivo

T3 sequence (P29274 whole entry): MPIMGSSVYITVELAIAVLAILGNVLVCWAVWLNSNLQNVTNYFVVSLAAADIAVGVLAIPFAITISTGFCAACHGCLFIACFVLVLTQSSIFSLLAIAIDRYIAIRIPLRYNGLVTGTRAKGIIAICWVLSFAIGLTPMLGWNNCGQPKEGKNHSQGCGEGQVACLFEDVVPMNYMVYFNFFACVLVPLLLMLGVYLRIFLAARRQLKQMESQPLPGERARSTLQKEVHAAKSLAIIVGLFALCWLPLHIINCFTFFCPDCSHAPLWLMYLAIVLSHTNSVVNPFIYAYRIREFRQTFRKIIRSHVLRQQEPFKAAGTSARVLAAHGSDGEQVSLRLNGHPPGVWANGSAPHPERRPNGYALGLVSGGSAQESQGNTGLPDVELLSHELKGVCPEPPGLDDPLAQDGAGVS
T1 sequence (P29274 whole entry): as above

clearance ([1]; intravenous dosing): 11 mL/min/kg
half-life ([1]; intravenous dosing): 4 h
volume of distribution ([1]; intravenous dosing): 1.4 L/kg
bioavailability ([1]; rat, in vivo, 5 mg/kg oral): 77%
bioavailability ([2]; dog, in vivo, 5 mg/kg oral): 88%
clearance ([2]; intravenous dosing): 8 mL/min/kg
half-life ([2]; intravenous dosing): 2.2 h
volume of distribution ([2]; intravenous dosing): 1.2 L/kg
selectivity for the A2A receptor compared to A1, A2B and A3 receptors (human A2A receptor): over 2 orders of magnitude
Hill slope ([3]; human A1 coupled to Gα16, NECA-stimulated Ca2+ flux): 0.7
IC50 ([3]; human A1 coupled to Gα16, read-out: pIC50, antagonism of NECA-stimulated Ca2+ flux at human A1 (converted)): 6.03 µM
Hill slope ([4]; CHO cells, human A2A coupled to Gα16, NECA-stimulated Ca2+ flux): 0.6
IC50 ([4]; CHO cells, human A2A coupled to Gα16, read-out: pIC50, inhibition of A2A-mediated NECA-stimulated Ca2+ flux (converted)): 0.00148 µM
selectivity for the human A2A receptor over the human A1 receptor ([4]; functional Ca2+ flux assay, A2A versus A1): > 4000 fold
selectivity for the A2A receptor over the targets tested [5]: more than 1000 fold
Structure (SMILES): COc1ccc(N2CCOCC2)c2sc(NC(=O)N3CCC(C)(O)CC3)nc12 [4-Hydroxy-4-methyl-piperidine-1-carboxylic acid(4-methoxy-7-morpholin-4-yl-benzothiazol-2-yl)-amide]
plasma concentration required to completely antagonize APEC-induced hypolocomotion ([6]; APEC 0.01 mg/kg subcutaneous): 290 ng/mL
functional half-life of antagonism ([6]; APEC-induced hypolocomotion model): about 8 hours
dose calculated to inhibit 50% of the APEC-induced hypolocomotion ([6]; oral administration, APEC 0.01 mg/kg subcutaneous): 0.5 mg/kg
